Test results taken from US6090610A, “Macrolide compound 0406” (Higeta Shoyu Co., Ltd., priority 1996, dated 2000).
Values after ≈ are worked out from the molar mass of the structure shown.

Legend:
[1] = Cytotoxity test, 3H-thymidine uptake, Cos-1; type: cell-based; conditions: monkey, cos-1 cells; Cos-1, 96 h; read-out: IC50 (cytotoxity)
Protocol: (§1) After culturing for 96 hours, ^3 H-thymidine (0.5 μCi/well) was added into each well. The microtiter plate was incubated for 4 hours, followed by trypsin treatment of the cell lines excluding YAC-1, and the resulting cells were recovered on glass fiber filters to measure the radioactivity incorporated into the cells by means of a liquid scintillation counter. From the radioactivity (c) of a well with no addition of any sample and the radioactivity (t) of each of the wells with addition of the individual samples, the growth inhibition rate was determined by the formula […] (%). IC50 was calculated from the results.

[2] = Cytotoxity test, 3H-thymidine uptake, HEK-297; type: cell-based; conditions: human, hek-297 cells; HEK-297, 96 h; read-out: IC50 (cytotoxity)
Protocol: as §1

[3] = system: cytotoxic T-cell (CTL) generation; assay: In vitro cytotoxic T-cell activity (inhibitory effect on CTL generation induced by murine mixed lymphocyte reaction), 51Cr release from EL-4 cells; type: cell-based; conditions: for Cytotoxic T-cell activity: lytic units per 10^7 effector cells
Protocol: (2) In vitro cytotoxic T-cell activity (CTL: cytotoxic T-cell) (Inhibitory effect on CTL generation, induced by murine mixed lymphocyte reaction)
A suspension solution (5.5×10^6 cells/ml; 0.9 ml) of BALB/C (H-2^d) splenocytes prepared in the same manner as in Example 2, a suspension solution (5.5×10^6 cells/ml; 0.9 ml) of C57BL/6 (H-2^b) splenocytes preliminarily treated with mitomycin C, and a sample solution (0.2 ml) were added into a 24-well multi-dish, for culturing at 37° C. under conditions of 5% CO2 -95% air for 5 days. After completion of cultivation, the cells were recovered by centrifuge, which were then suspended in the RPMI 1640 medium containing 10% bovine serum, for use as the effector cells.
EL-4 cells (H-2^b) were used as the target cells. The incubation of the EL-4 cells (10^6) with 0.1 μCi Na2^51 CrO4 at 37° C. for 3 hours promoted the ^51 Cr uptake in the cells, and subsequently, the cells were washed and the concentration was adjusted to 2×10^5 cells/ml for use as the target cells.
The determination of the cytotoxic T-cell generation was carried out as follows. The effector cell suspension (100 μl) and the target cell suspension (100 μl) were added into a 96-well round-bottom microtiter plate for cultivation at 37° C. for 4 hours, to measure ^51 Cr release in the supernatant. Then, the cytotoxic T-cell activity was calculated by the formulated below.
Cytotoxic T-cell activity =
[radioactivity of (effector cell + target cell)] -
(radioactivity of target cell alone)/
(radioactivity of target cell treated with 0.1N HCl) -
(radioactivity of target cell alone) × 100
The activity of the cytotoxic T cell was represented in lytic unit (LU). The activity in LU was represented per 10^7 effector cells, when 1 LU was designated as the number of effector cells required for 20% lysis of the 2×10^4 target cells.

Solubility = type: physicochemical
[4] = Cytotoxity test, 3H-thymidine uptake, HeLa; type: cell-based; conditions: human, hela cells, read-out: IC50 (cytotoxity)
Protocol: as §1

[5] = Cytotoxity test, 3H-thymidine uptake, YAC-1; type: cell-based; conditions: mouse, yac-1 cells; YAC-1, 96 h; read-out: IC50 (cytotoxity)
Protocol: as §1

[6] = system: murine T cells (C57BL/6 splenocytes as responder cells); assay: Murine mixed lymphocyte reaction (MLR), T-cell blast formation by tritium-labeled thymidine uptake; type: cell-based; conditions: Mus musculus, 96 h culture + 7 h labeling, read-out: IC50 (MLR, inhibition of tritium-labeled thymidine uptake)
[7] = system: cultured cell lines (HEK-297, Cos-1, YAC-1, HeLa); assay: Cytotoxity test, overall comparison on cultured cell lines; type: cell-based; conditions: in words
Protocol: (1) The cytotoxity test of compound 0406-A shown in Example 1 was carried out against cultured cell lines.
Cell suspensions (5.6×10^4 cells/ml) were prepared by using the Minimum Essential Medium (MEM)-Dulbecco's medium for HEK-297, Cos-1, and Hela cells, and the RPMI 1640 medium for YAC-1 cells (all media containing 10% bovine serum). Samples (0406A, Cyclosporin and Ascomycin) were prepared by serial two-fold dilution starting from 1 mg/ml, by using the individual media. A cell suspension (180 μl) and a sample solution (20 μl) were added into each well of a 96-well microtiter plate, for culturing at 37° C. in wet 5% CO2 -95% air environment. After culturing for 96 hours, ^3 H-thymidine (0.5 μCi/well) was added into each well. The microtiter plate was incubated for 4 hours, followed by trypsin treatment of the cell lines excluding YAC-1, and the resulting cells were recovered on glass fiber filters to measure the radioactivity incorporated into the cells by means of a liquid scintillation counter. From the radioactivity (c) of a well with no addition of any sample and the radioactivity (t) of each of the wells with addition of the individual samples, the growth inhibition rate was determined by the formula […] (%). IC50 was calculated from the results.

[8] = system: Nocardia brasiliensis IFM 0406; assay: Sensitivity of Nocardia brasiliensis IFM 0406 against antibiotics; type: cell-based
Protocol: The strain was cultured in a culture medium (brain heart infusion containing 2% glucose) at 30° C. with shaking at 250 rpm for 72 hours, and the cells grown in the medium were collected by centrifuge at 3,000 rpm for 10 minutes, which were then washed twice in distilled water. Further, the cells were washed in ethanol and subsequently dried in vacuum to give the dry cells. According to Bergey's Manual of Determinative Bacteriology, the 9-th edition, Williams & Willkins, Baltimore, 1993, the amino acid composition, sugar composition and lipid composition of the dry cells were determined. Meso-diamino pimelic acid was detected by the amino acid analysis, while arabinose and galactose were detected by the sugar analysis. Also, the presence of mycolic acid was determined by the lipid analysis, and the type of the acid was Nocardia type. MK-8(H4) cycle was confirmed as a principal component of the isoprenoid quinone which is a part of the bacterial lipid, while as the trace components, MK-8(H4), MK-8(H), and MK-9(H2) were confirmed. Based onthe decomposition of adenine, casein, hypoxanthine and tyrosine and additionally on the formation patterns of acids from sugar and the antimicrobial sensitivity patterns, shown in Table 4 (Mikami & Yazawa, Susceptibility pattern of pathogenic Nocardia to some selected antimicrobial agents and their usefulness in the identification work in a clinical laboratory: BuLL. JFCC, 5: 89, 1989), the bacterial strain was identified as the species N. brasiliensis. The results of the analysis of the G+C content and DNA homology support strongly that the strain is N. brasiliensis.

[9] = in words; cited from earlier work

CCCCC(=O)OC1CC(OC(C)C(C)C(O)C(C)C(O)C(C)C2OC(=O)C=CCC(O)CC(O)CC(O)CCC(C)C(O)CC3(O)OC(CC(O)CC(OC(=O)CC(=O)O)CCCC(O)C4OC4C2C)CC(O)C3O)OC(C)C1O (stereo not drawn) [0406-A]
CC50 at 96 h [1]: > 100 mg/L
CC50 at 96 h [2]: > 100 mg/L
Cytotoxic T-cell activity ([3]; 126 ng/ml): 22.0 u
Cytotoxic T-cell activity ([3]; 625 ng/ml): 12.5 u
Cytotoxic T-cell activity ([3]; 2,500 ng/ml): 0.1 u
Cytotoxic T-cell activity ([3]; 10,000 ng/ml): < 0.1 u
inhibition at 0.126 µg/mL ([3]; Mus musculus, T-cell, 120 h, 126 ng/ml, read-out: Inhibition rate (cytotoxic T-cell activity)): 0%
inhibition at 0.625 µg/mL ([3]; Mus musculus, T-cell, 120 h, 625 ng/ml, read-out: Inhibition rate (cytotoxic T-cell activity)): 39.5%
inhibition at 2.5 µg/mL ([3]; Mus musculus, T-cell, 120 h, 2,500 ng/ml, read-out: Inhibition rate (cytotoxic T-cell activity)): 99.5%
inhibition at 10 µg/mL ([3]; Mus musculus, T-cell, 120 h, 10,000 ng/ml, read-out: Inhibition rate (cytotoxic T-cell activity)): > 99.5%
induction of CTL ([3]; in words, dose dependence): decreased the induction of CTL in a dose-dependent manner
Solubility (Solubility; chloroform, ethyl acetate, ether): Insoluble in chloroform, ethyl acetate and ether
Solubility (Solubility; water, methanol, ethanol, DMSO): Soluble in water, methanol, ethanol and DMSO
CC50 at 96 h [4]: > 100 mg/L
CC50 at 96 h [5]: > 100 mg/L
IC50 [6]: 0.16 mg/L
cytotoxity level versus commercially available immuno suppressive agents [7]: lower than that of the commercially available immuno suppressive agents

CC[C@@H]1/C=C(\C)C[C@H](C)C[C@H](OC)[C@H]2O[C@@](O)(C(=O)C(=O)N3CCCC[C@H]3C(=O)O[C@H](/C(C)=C/[C@@H]3CC[C@@H](O)[C@H](OC)C3)[C@H](C)[C@@H](O)CC1=O)[C@H](C)C[C@@H]2OC [Ascomycin, reference compound]
CC50 at 96 h [1]: 58 mg/L (≈ 73.2 µM)
CC50 at 96 h [2]: 25 mg/L (≈ 31.6 µM)
CC50 at 96 h [4]: 13 mg/L (≈ 16.4 µM)
CC50 at 96 h [5]: 50 mg/L (≈ 63.1 µM)
IC50 [6]: 0.008 mg/L

NC[C@H]1O[C@H](O[C@H]2[C@H](O)[C@@H](O[C@H]3O[C@H](CO)[C@@H](O)[C@H](N)[C@H]3O)[C@H](N)C[C@@H]2N)[C@H](O)[C@@H](O)[C@@H]1O [kanamycin]
Sensitivity against antibiotics [8]: negative

C[C@@H](O)[C@H]1C(=O)N2C(C(=O)O)=C(SCCN=CN)C[C@H]12 [imipenem]
Sensitivity against antibiotics [8]: negative

C=CC[C@@H]1/C=C(\C)C[C@H](C)C[C@H](OC)[C@H]2O[C@@](O)(C(=O)C(=O)N3CCCC[C@H]3C(=O)O[C@H](/C(C)=C/[C@@H]3CC[C@@H](O)[C@H](OC)C3)[C@H](C)[C@@H](O)CC1=O)[C@H](C)C[C@@H]2OC [tacrorims]
side effects [9]: deleterious in the pancreas and the kidney

O=c1[nH]cc(F)c(=O)[nH]1 [5-FU]
Sensitivity against antibiotics [8]: negative

NC[C@H]1O[C@H](O[C@H]2[C@H](O)[C@@H](O[C@H]3O[C@H](CO)[C@@H](O)[C@H](N)[C@H]3O)[C@H](N)C[C@@H]2N)[C@H](N)C[C@@H]1O [tobramycin]
Sensitivity against antibiotics [8]: positive
